This passage reports mass density, Normal boiling temperature and refractive index results from the NIST ThermoML archive (doi:10.1016/j.fluid.2006.08.004).

The conditions of data set [1]: Liquid; for mass density: 298.15 K, 101.33 kPa; for Normal boiling temperature: Ebulliometric method (Recirculating still).
Data set [2] can be described thus: refractive index (Na D-line) (dimensionless). Particulars: 298.15 K; 101.33 kPa; Liquid; Standard Abbe refractometry.

± gives the expanded uncertainty stated by the source.

On to `CC(C)CC(C)(C)C` [2,2,4-trimethylpentane], for which, in data set [1], the mass density amounted to 687.72 ± 0.65 kg/m3 and the Normal boiling temperature stood at 99.18 ± 0.01 °C. The refractive index in data set [2] worked out at 1.38887 ± 0.00068.

Regarding `CC(C)OC(C)C` [diisopropyl ether], in data set [1], the mass density is on record as 718.37 ± 1.2 kg/m3 and the Normal boiling temperature is 68.38 ± 0.1 °C. Besides, in data set [2], the refractive index stood at 1.36512 ± 0.0007.

With `CCO` [ethanol], in data set [1], the mass density was determined as 785.09 ± 0.25 kg/m3 and the Normal boiling temperature was determined as 78.29 ± 0.01 °C. Besides, in data set [2], the refractive index amounted to 1.35926 ± 0.00068.

The mass density is the mass of a sample divided by its volume. Broadly, the refractive index is a measure of how strongly the sample bends light.
